Columns and labels:
[1] = target: human TASK-3 (Homo sapiens (Human), UniProt Q9NPC2); assay: Inhibition of recombinant TASK-3 in stably transfected CHO cells (voltage-sensitive dye, KCl depolarization); assay type: cell-based; conditions: depolarization by 40 mM potassium chloride
Description: (§1) B-2. Inhibition of Recombinant TASK-1 and TASK-3 In Vitro
(§2) The investigations on the inhibition of the recombinant TASK-1 and TASK-3 channels were conducted using stably transfected CHO cells. The compounds according to the invention were tested in this case by application of 40 mM potassium chloride in the presence of a voltage-sensitive dye according to the method described in detail in the following references [Whiteaker et al., Validation of FLIPR membrane potential dye for high-throughput screening of potassium channel modulators, J. Biomol. Screen. 6 (5), 305-312 (2001); Molecular Devices FLIPR Application Note: Measuring membrane potential using the FLIPR® membrane potential assay kit on Fluorometric Imaging Plate Reader (FLIPR®) systems, http://www.moleculardevices.com/reagents-supplies/assay-kits/ion-channels/flipr-membrane-potential-assay-kits]. The activity of the test substances was determined as their ability to inhibit a depolarization induced in the recombinant cells by 40 mM potassium chloride. The concentration which can block half of this depolarization is referred to as IC50.

[2] = target: human TASK-1 (Homo sapiens (Human), UniProt O14649); assay: Inhibition of recombinant TASK-1 in stably transfected CHO cells (voltage-sensitive dye, KCl depolarization); assay type: cell-based; conditions: depolarization by 40 mM potassium chloride
human TASK-1, sequence (O14649 whole entry): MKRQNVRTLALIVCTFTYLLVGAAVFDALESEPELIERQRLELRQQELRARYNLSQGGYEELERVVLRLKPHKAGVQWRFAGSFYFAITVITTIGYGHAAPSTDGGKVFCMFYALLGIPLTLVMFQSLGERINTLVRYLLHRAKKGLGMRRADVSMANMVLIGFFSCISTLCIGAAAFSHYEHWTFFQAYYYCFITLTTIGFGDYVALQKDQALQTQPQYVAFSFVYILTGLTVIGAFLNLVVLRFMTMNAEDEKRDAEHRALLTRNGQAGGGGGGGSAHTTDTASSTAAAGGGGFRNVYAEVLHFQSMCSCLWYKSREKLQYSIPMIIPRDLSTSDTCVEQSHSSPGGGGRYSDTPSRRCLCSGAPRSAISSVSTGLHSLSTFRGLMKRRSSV
Description: as §1, §2

human TASK-3, sequence (Q9NPC2 whole entry): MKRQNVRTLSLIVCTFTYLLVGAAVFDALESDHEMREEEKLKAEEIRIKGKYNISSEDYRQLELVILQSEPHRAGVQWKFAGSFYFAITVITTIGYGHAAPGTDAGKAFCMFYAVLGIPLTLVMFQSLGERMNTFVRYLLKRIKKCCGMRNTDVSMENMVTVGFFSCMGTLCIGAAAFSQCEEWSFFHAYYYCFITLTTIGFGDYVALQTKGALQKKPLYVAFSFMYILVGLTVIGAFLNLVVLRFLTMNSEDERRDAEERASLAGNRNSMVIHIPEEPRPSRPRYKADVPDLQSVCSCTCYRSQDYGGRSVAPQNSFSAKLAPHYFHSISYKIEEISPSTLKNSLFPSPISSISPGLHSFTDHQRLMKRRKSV

SMILES | IC50 [1] [nM] | IC50 [2] [nM]
CC(C)CNC(=O)N1C2CCC1CN(Cc1c(-c3ccc(Cl)cc3)nc3ncccn13)C2 [Example 101, 3-{[2-(4-Chlorophenyl)imidazo[1,2-a]pyrimidin-3-yl]methyl}-N-isobutyl-3,8-diazabicyclo[3.2.1]octane-8-carboxamide] | 510 | 19000
O=C(Nc1ccc(SC(F)(F)F)cc1)N1C2CCC1CN(Cc1c(-c3ccc(Cl)cc3)nc3ncccn13)C2 [Example 103, 3-{[2-(4-chlorophenyl)imidazo[1,2-a]pyrimidin-3-yl]methyl}-N-{4-[(trifluoromethyl)sulfanyl]phenyl}-3,8-diazabicyclo[3.2.1]octane-8-carboxamide] | 690 | 30000
O=C(Nc1cccc(F)c1)N1C2CCC1CN(Cc1c(-c3ccc(Cl)cc3)nc3ncccn13)C2 [Example 104, 3-{[2-(4-chlorophenyl)imidazo[1,2-a]pyrimidin-3-yl]methyl}-N-(3-fluorophenyl)-3,8-diazabicyclo[3.2.1]octane-8-carboxamide] | 460 | 19000
O=C(Nc1ccc(Cl)cc1C(F)(F)F)N1C2CCC1CN(Cc1c(-c3ccc(Cl)cc3)nc3ncccn13)C2 [Example 106, 3-{[2-(4-chlorophenyl)imidazo[1,2-a]pyrimidin-3-yl]methyl}-N-[4-chloro-2-(trifluoromethyl)phenyl]-3,8-diazabicyclo[3.2.1]octane-8-carboxamide] | 89 | 30000
Cc1ccccc1CNC(=O)N1C2CCC1CN(Cc1c(-c3ccc(Cl)cc3)nc3ncccn13)C2 [Example 107, 3-{[2-(4-chlorophenyl)imidazo[1,2-a]pyrimidin-3-yl]methyl}-N-(2-methylbenzyl)-3,8-diazabicyclo[3.2.1]octane-8-carboxamide] | 750 | 30000
CN(C(=O)N1C2CCC1CN(Cc1c(-c3ccc(Cl)cc3)nc3ncccn13)C2)c1ccccc1 [Example 108, 3-{[2-(4-chlorophenyl)imidazo[1,2-a]pyrimidin-3-yl]methyl}-N-methyl-N-phenyl-3,8-diazabicyclo[3.2.1]octane-8-carboxamide] | 90 | 7000
CCN(CC)C(=O)N1C2CCC1CN(Cc1c(-c3ccc(Cl)cc3)nc3ncccn13)C2 [Example 109, 3-{[2-(4-chlorophenyl)imidazo[1,2-a]pyrimidin-3-yl]methyl}-N,N-diethyl-3,8-diazabicyclo[3.2.1]octane-8-carboxamide] | 1.5 | 24
O=C(N1CCOCC1)N1C2CCC1CN(Cc1c(-c3ccc(Cl)cc3)nc3ncccn13)C2 [Example 110, (3-{[2-(4-chlorophenyl)imidazo[1,2-a]pyrimidin-3-yl]methyl}-3,8-diazabicyclo[3.2.1]oct-8-yl)(morpholin-4-yl)methanone] | 230 | 13000
CC(C)N(C(=O)N1C2CCC1CN(Cc1c(-c3ccc(Cl)cc3)nc3ncccn13)C2)C(C)C [Example 111, 3-{[2-(4-chlorophenyl)imidazo[1,2-a]pyrimidin-3-yl]methyl}-N,N-diisopropyl-3,8-diazabicyclo[3.2.1]octane-8-carboxamide] | 290 | 6300
CCN(C(=O)N1C2CCC1CN(Cc1c(-c3ccc(Cl)cc3)nc3ncccn13)C2)C1CCCCC1 [Example 112, 3-{[2-(4-chlorophenyl)imidazo[1,2-a]pyrimidin-3-yl]methyl}-N-cyclohexyl-N-ethyl-3,8-diazabicyclo[3.2.1]octane-8-carboxamide] | 130 | 15000
O=C(N1CCCC1)N1C2CCC1CN(Cc1c(-c3ccc(Cl)cc3)nc3ncccn13)C2 [Example 113, (3-{[2-(4-chlorophenyl)imidazo[1,2-a]pyrimidin-3-yl]methyl}-3,8-diazabicyclo[3.2.1]oct-8-yl)(pyrrolidin-1-yl)methanone] | 62 | 1100
CCN(C(=O)N1C2CCC1CN(Cc1c(-c3ccc(Cl)cc3)nc3ncccn13)C2)c1ccccc1 [Example 114, 3-{[2-(4-chlorophenyl)imidazo[1,2-a]pyrimidin-3-yl]methyl}-N-ethyl-N-phenyl-3,8-diazabicyclo[3.2.1]octane-8-carboxamide] | 140 | 6700
CC(C)N(C)C(=O)N1C2CCC1CN(Cc1c(-c3ccc(Cl)cc3)nc3ncccn13)C2 [Example 115, 3-{[2-(4-chlorophenyl)imidazo[1,2-a]pyrimidin-3-yl]methyl}-N-isopropyl-N-methyl-3,8-diazabicyclo[3.2.1]octane-8-carboxamide] | 330 | 7400
O=C(N1CCCCC1)N1C2CCC1CN(Cc1c(-c3ccc(Cl)cc3)nc3ncccn13)C2 [Example 116, (3-{[2-(4-chlorophenyl)imidazo[1,2-a]pyrimidin-3-yl]methyl}-3,8-diazabicyclo[3.2.1]oct-8-yl)(piperidin-1-yl)methanone] | 65 | 2700
CC(C)N(C(=O)N1C2CCC1CN(Cc1c(-c3ccc(Cl)cc3)nc3ncccn13)C2)c1ccc(Cl)cc1 [Example 118, N-(4-chlorophenyl)-3-{[2-(4-chlorophenyl)imidazo[1,2-a]pyrimidin-3-yl]methyl}-N-isopropyl-3,8-diazabicyclo[3.2.1]octane-8-carboxamide] | 220 | 19000
CN(C)C(=O)N1C2CCC1CN(Cc1c(-c3ccc(Cl)cc3)nc3ncccn13)C2 [Example 119, 3-{[2-(4-chlorophenyl)imidazo[1,2-a]pyrimidin-3-yl]methyl}-N,N-dimethyl-3,8-diazabicyclo[3.2.1]octane-8-carboxamide] | 210 | 5300
CCOc1ccc(N(C)C(=O)N2C3CCC2CN(Cc2c(-c4ccc(Cl)cc4)nc4ncccn24)C3)cc1 [Example 120, 3-{[2-(4-chlorophenyl)imidazo[1,2-a]pyrimidin-3-yl]methyl}-N-(4-ethoxyphenyl)-N-methyl-3,8-diazabicyclo[3.2.1]octane-8-carboxamide] | 230 | 15000
COc1cccc(CN(C)C(=O)N2C3CCC2CN(Cc2c(-c4ccc(Cl)cc4)nc4ncccn24)C3)c1 [Example 121, 3-{[2-(4-chlorophenyl)imidazo[1,2-a]pyrimidin-3-yl]methyl}-N-(3-methoxybenzyl)-N-methyl-3,8-diazabicyclo[3.2.1]octane-8-carboxamide] | 120 | 12000
O=C(N1CCSCC1)N1C2CCC1CN(Cc1c(-c3ccc(Cl)cc3)nc3ncccn13)C2 [Example 122, (3-{[2-(4-Chlorophenyl)imidazo[1,2-a]pyrimidin-3-yl]methyl}-3,8-diazabicyclo[3.2.1]oct-8-yl)(thiomorpholin-4-yl)methanone] | 120 | 5000
COC(=O)N1C2CCC1CN(Cc1c(-c3ccc(Cl)cc3)nc3ncccn13)C2 [Example 123, methyl 3-{[2-(4-chlorophenyl)imidazo[1,2-a]pyrimidin-3-yl]methyl}-3,8-diazabicyclo[3.2.1]octane-8-carboxylate] | 230 | 14000
CCOC(=O)N1C2CCC1CN(Cc1c(-c3ccc(Cl)cc3)nc3ncccn13)C2 [Example 124, ethyl 3-{[2-(4-chlorophenyl)imidazo[1,2-a]pyrimidin-3-yl]methyl}-3,8-diazabicyclo[3.2.1]octane-8-carboxylate] | 17 | 790
O=C(OC1CCCC1)N1C2CCC1CN(Cc1c(-c3ccc(Cl)cc3)nc3ncccn13)C2 [Example 125, cyclopentyl 3-{[2-(4-chlorophenyl)imidazo[1,2-a]pyrimidin-3-yl]methyl}-3,8-diazabicyclo[3.2.1]octane-8-carboxylate] | 27 | 230
CCCOC(=O)N1C2CCC1CN(Cc1c(-c3ccc(Cl)cc3)nc3ncccn13)C2 [Example 126, propyl 3-{[2-(4-chlorophenyl)imidazo[1,2-a]pyrimidin-3-yl]methyl}-3,8-diazabicyclo[3.2.1]octane-8-carboxylate] | 14 | 280
O=C(OC1CCCCC1)N1C2CCC1CN(Cc1c(-c3ccc(Cl)cc3)nc3ncccn13)C2 [Example 128, cyclohexyl 3-{[2-(4-chlorophenyl)imidazo[1,2-a]pyrimidin-3-yl]methyl}-3,8-diazabicyclo[3.2.1]octane-8-carboxylate] | 110 | 2000
CC(C)c1ccc(-c2nc3ncccn3c2CN2CC3CCC(C2)N3C(=O)OC(C)(C)C)cc1 [Example 130, tert-Butyl 3-{[2-(4-isopropylphenyl)imidazo[1,2-a]pyrimidin-3-yl]methyl}-3,8-diazabicyclo[3.2.1]octane-8-carboxylate] | 210 | 1700
CC(C)c1ccc(-c2nc3ncccn3c2CN2CC3CCC(C2)N3C(=O)c2ncoc2C2CC2)cc1 [Example 131, (5-Cyclopropyl-1,3-oxazol-4-yl)(3-{[2-(4-isopropylphenyl)imidazo[1,2-a]pyrimidin-3-yl]methyl}-3,8-diazabicyclo[3.2.1]oct-8-yl)methanone] | 410 | 3500
CC(C)(C)OC(=O)N1C2CCC1CN(Cc1c(-c3ccc(C4CC4)cc3)nc3ncccn13)C2 [Example 132, tert-Butyl 3-{[2-(4-cyclopropylphenyl)imidazo[1,2-a]pyrimidin-3-yl]methyl}-3,8-diazabicyclo[3.2.1]octane-8-carboxylate] | 410 | 1700

Source: patent US11098063B2, “Diazabicyclic substituted imidazopyrimidines and their use for the treatment of breathing disorders” (Bayer Aktiengesellschaft, priority 2017, dated 2021)
